# From patent US20160129005A1, “ADENINE DERIVATIVES HAVING IMMUNOMODULATING ANTI-INFLAMMATORY AND ANALGESIC ACTIVITY” (MEDESTEA RESEARCH & PRODUCTION S.p.A., priority 2011, published 2016)
# Columns and labels:
# [1] = system: Lewis rats; assay: Acute experimental autoimmune encephalomyelitis (MBP/CFA); format: in vivo, rat; conditions: for peak of neurologic damage (neuroclinical score 0-5): vehicle peak 3 (day 13)
# Method: We investigated whether treatment with […], at the onset of the acute form of experimental autoimmune encephalitis (EAE), the murine model of human multiple sclerosis, could induce a functional recovery.
# The motor and sensory deficits were classified according to previously assigned “neuronal” clinical scores.
# Adult female Lewis rats (200-250 g) were immunized with an intradermal injection, in the hind limbs, of […] of myelin basic protein (MBP) dissolved in 50 microlitres of emulsified saline solution in 50 microlitres of complete Freund adjuvant (CFA).
# Starting from the fifth day post-inoculation, the rats were treated daily with […] (0.1 or 1 mg/kg per os) or with the placebo (vehicle).
# The animals were monitored daily until day 21 for clinical symptoms; the range of neuroclinical scores extended from 0 (no neurologic symptom) up to a maximum of 5 (complete paralysis of all legs or death).
# Inoculation with the MBP/CFA emulsion led to a very evident loss of body weight; this was not changed by the treatment with Immuflam. The animals were divided into three groups of 15: group 1 Immuflam 0.1 mg/kg, group 2 Immuflam 1 mg/kg, group 3 vehicle. They were all treated daily per os from day 5 until sacrifice.
# [2] = system: Dark Agouti (DA) rats; assay: Chronic experimental autoimmune encephalomyelitis (MOG); format: in vivo, rat; conditions: 1 mg/kg per os daily from day of inoculation, to day 50; dose-dependent; FIG. 43
# Method: We investigated whether treatment with […], at the onset of EAE induced by immunization with MOG (myelin-oligodendrocyte-glycoprotein), stimulates histologic protection and functional recovery.
# The motor and sensory deficits were classified according to the previously assigned “neuronal” clinical scores.
# Chronic EAE was induced in 60 female adult Dark Agouti (DA) rats of 120-170 g, immunizing the animals with an intradermal injection, at the base of the tail, of […] of recombinant protein MOG1-125 in emulsified PBS in complete Freund adjuvant (CFA) containing hot-inactivated M. tuberculosis.
# The rats were divided into 3 groups of 20 animals each and were treated with daily administrations of vehicle or […] 0.1 or 1 mg/kg per os, starting from the day of inoculation.
# The neurological scores were measured and evaluated daily for the first thirty days, and thereafter only on weekdays (Monday-Friday) until the end of the study (day 50).
# The range of neuroclinical scores begins at 0 (absence of neurologic symptoms) and ends with a score of 5 (complete paralysis of all legs or animal moribund).
# [3] = system: male Fischer inbred rats; assay: Model of arthritis: complete Freund adjuvant paw inflammation, plantar test (Hargreaves); format: in vivo, rat
# Method: […] was tested for possible antinociceptive and anti-inflammatory activity in a murine model of arthritis.
# Unilateral inflammation of the posterior plantar pad of the rat (male Fischer inbred rats) was induced with a local injection of complete Freund adjuvant.
# […], 4 mg/kg, was administered intraperitoneally.
# The rats were put in a transparent plastic chamber and were left to acclimatize for 5 minutes before the test.
# Thermal stimulus, applied to the surface of the plantar pads of the rats, was produced by a halogen lamp (64607 OSRAM) of 8 V-50 W, through the plastic box; the diameter of the radiant beam measured about 12 mm. The time for withdrawal of the animal's right plantar pad was measured before and after injection of […].
# A comparison was conducted on the anti-hyperalgesic and anti-inflammatory effect of a cortisone derivative, methylprednisolone acetate, administered intraperitoneally (5 mg/kg).
# [4] = system: naive murine CD4+ cells; assay: Activation of naive murine CD4+ T cells in vitro (CFSE, cytofluorimeter, ELISA); format: cell-based, mouse
# Excerpt: The lymphocytes are cells of the immune defences that direct and amplify the response to attack. Their imbalance or malfunction is also at the root of autoimmune diseases. Successful increase in the ratio in favour of Treg cells can restore the equilibrium of the immune response and combat the resultant disorders. We analysed the activation of isolated naive murine CD4+ cells in the cytofluorimeter for the phenotype CD4+CD62L+CD44−CD25−. The cells were labelled with “5,6-carboxyfluorescein diacetate succinimyl ester” (CFSE) and we evaluated cellular proliferation in quantitative acquisitions with the cytofluorimeter based on the dilution of fluorescence, which depends on the proliferative activity of the cell.
# [5] = system: naive CD4 cells; assay: Induction of T regulatory (Treg) cells from naive CD4 cells; format: cell-based, mouse; conditions: anti-CD3 stimulation 96 h, increasing concentrations; FIG. 22
# Method: We evaluated the capacity of […] to induce in vitro the differentiation of naive CD4 cells into immunosuppressive Treg cells characterized by the phenotype CD4+CD25+ and by expression of the Foxp3 transcription factor. […] The naive CD4 cells were stimulated with anti-CD3 antibodies for 96 h in the presence of increasing concentrations of […].
# [6] = system: diabetic C57BL/6 mice transplanted with BALB/c islets; assay: Survival of allogenic pancreatic islets in murine transplant model; format: in vivo, mouse; conditions: 9 mg/kg or 30 mg/kg i.p. daily; FIG. 24
# Method: C57BL/6 mice were made diabetic by administration of streptozotocin (170 mg/kg) and, following transplant of allogenic pancreatic islets, were treated with […].
# The pancreatic islets, isolated from the BALB/c mouse, were inoculated in the diabetic mouse according to the procedure described by Abde R et al. (Diabetes 51 (8): 2489-2495). The glycaemia values were measured daily for monitoring the functionality of the transplanted cells.
# The significance of rejection of transplanted cells that occurred was attributed to glycaemia values above 250 mg/dl, obtained in two consecutive measurements. After the cells were implanted (day 0), the mice were treated with intraperitoneal injections of 9 mg/kg or 30 mg/kg of […] daily.
# The combination of […] and Rapamycin, currently the most used of the immunosuppressive drugs, was tested on the same animal model.
# Both drugs were administered 6 times (day 0, day 2, day 4, day 6, day 8, day 10); […] was administered at 2 doses.
# [7] = system: C57BL/6 WT mice; assay: Allergic contact dermatitis (TNCB sensitization, ear thickness); format: in vivo, mouse; conditions: 2 mg/kg injected locally in the auricle 4 hours before stimulus; FIG. 36
# Method: C57BL/6 WT mice are sensitized by applying, on day 0, 100 μl of 3% TNCB (2,4,6-trinitrochlorobenzene) in acetone, or only acetone as control, on the skin of the abdomen.
# As stress, 20 μl of 1% TNCB is applied on the skin of the back of both ears on day 5. This stress causes an allergic reaction that is manifested as swelling and reddening. The thickness of the ear (symptom of swelling) is measured 24 hours after application of the stimulus, using callipers (Mitutoyo). […] was injected locally in the auricle at a dose of 2 mg/kg 4 hours before the […] stimulus.
# [8] = system: murine neuroblastoma; conditions: tissue cultures; Mirkin et al., Cancer Research 47, 1987; cited from earlier work
structure (smiles),measurement,setting,value
C=C(C=O)OC(C=O)n1cnc2c(N)ncnc21 (centres unmarked) [2-[1-(6-aminopurin-9-yl)-2-oxoethoxy]prop-2-enal],clinical scores vs vehicle groups,"[1]; between day 12 and day 15, FIG. 4",significant differences
same,peak of neurologic damage (neuroclinical score 0-5),"[1]; group 1, 0.1 mg/kg per os daily from day 5",2.3
same,peak of neurologic damage (neuroclinical score 0-5),"[1]; group 2, 1 mg/kg per os daily from day 5",1.5
same,neurological scores,[2],remained lower throughout the period of observation
same,time for withdrawal of the plantar pads (thermal stimulus),"[3]; 4 mg/kg intraperitoneally, to levels comparable to baseline, FIG. 7",significantly increases the time for withdrawal of the plantar pads
same,action relative to methylprednisolone acetate,[3]; IMMUFLAM 4 mg/kg i.p. vs methylprednisolone acetate 5 mg/kg i.p.,more effective action
same,number of proliferating cells (CFSE dilution),"[4]; 300 μM, FIG. 21",more than ten-fold reduction
same,secretion of interleukin-2,[4]; ELISA in culture supernatant at 24 h,significantly reduces
same,"expression of CD44 and shedding of L-selectin CD62L (cells CD44 positive, CD62L negative)",[4]; FIG. 21,significantly reduces
same,side scatter of the cells (parameter of activation of CD4 cells),[4]; FIG. 21,reduced
same,differentiation of naive CD4 cells into Treg cells (CD4+CD25+ Foxp3),[5],induced the differentiation of Treg cells in a manner that was dependent on the dose used
same,rejection of transplanted islets (glycaemia above 250 mg/dl twice),[6],no rejection up to day 100
same,allergic reaction (thickness of the ear),[7],able to inhibit the allergic reaction
same,cytotoxic activity,[8],cytotoxic activity
